Among the data in patent US20090069370A1, “AZACYCLYLISOQUINOLINONE AND ISOINDOLINONE DERIVATIVES AS HISTAMINE-3 ANTAGONISTS” (Wyeth, priority 2007, published 2009) are melting point values, retold here.

Structures are written as SMILES. Where a name gives a salt, the structure may show the parent alone.

As usually defined, the melting point is the temperature of the solid-liquid transition. In the case of `O=C(c1ccc(-c2ccc3c(c2)CCN(C2CCN(C4CCC4)CC2)C3=O)cc1)N1CCCC1` (as salt: hydrochloride) [Example 65, 2-(1-cyclobutylpiperidin-4-yl)-6-[4-(pyrrolidin-1-ylcarbonyl)phenyl]-3,4-dihydroisoquinolin-1(2H)-one], the melting point was more than 300 °C. Then `O=C(c1ccc(COc2ccc3c(c2)CCN(C2CCN(C4CCC4)CC2)C3=O)cc1)N1CCCC1` (as salt: hydrochloride) [Example 20, 2-(1-Cyclobutylpiperidin-4-yl)-6-{[4-(pyrrolidin-1-ylcarbonyl)benzyl]oxy}-3,4-dihydroisoquinolin-1(2H)-one], with 284 to 286 °C; and `NC(=O)c1ccc(COc2ccc3c(c2)CCN(C2CCN(C4CCC4)CC2)C3=O)cc1` (as salt: hydrochloride) [Example 15, 4-({[2-(1-cyclobutylpiperidin-4-yl)-1-oxo-1,2,3,4-tetrahydroiso-quinolin-6-yl]oxy}methyl)benzamide acid hydrochloride], with 292 to 293 °C; and `O=C(c1ccc(-c2ccc3c(c2)CCN([C@@H]2CCN(C4CCC4)C2)C3=O)cc1)N1CCCC1` (as salt: hydrochloride) [Example 47, 2-[(3R)-1-cyclobutylpyrrolidin-3-yl]-6-[4-(pyrrolidin-1-ylcarbonyl)phenyl]-3,4-dihydroisoquinolin-1(2H)-one], with 215 to 217 °C. Regarding `O=C(NC1CCCC1)c1ccc(COc2ccc3c(c2)CCN(C2CCN(C4CCC4)CC2)C3=O)cc1` (as salt: hydrochloride) [Example 21, 4-({[2-(1-Cyclobutylpiperidin-4-yl)-1-oxo-1,2,3,4-tetrahydroisoquinolin-6-yl]oxy}methyl)-N-cyclopentylbenzamide], the melting point lay within 289 to 291 °C. For `CC(C)N1CC[C@@H](N2CCc3cc(-c4ccc(C(=O)N5CCCC5)cc4F)ccc3C2=O)C1` (as salt: hydrochloride) [Example 84, 6-[2-fluoro-4-(pyrrolidin-1-ylcarbonyl)phenyl]-2-[(3R)-1-isopropylpyrrolidin-3-yl]-3,4-dihydroisoquinolin-1(2H)-one], the melting point lay within 249 to 250 °C.

For `CCNC(=O)c1ccc(-c2ccc3c(c2)CCN([C@@H]2CCN(C(C)C)C2)C3=O)c(F)c1` (as salt: hydrochloride) [Example 86, N-ethyl-3-fluoro-4-{2-[(3R)-1-isopropylpyrrolidin-3-yl]-1-oxo-1,2,3,4-tetrahydroisoquinolin-6-yl}benzamide], the melting point is more than 255 °C. Under `O=C(NC1CC1)c1ccc(-c2ccc3c(c2)CCN([C@@H]2CCN(C4CCC4)C2)C3=O)c(F)c1` (as salt: hydrochloride) [Example 81, 4-{2-[(3R)-1-cyclobutylpyrrolidin-3-yl]-1-oxo-1,2,3,4-tetrahydroisoquinolin-6-yl}-N-cyclopropyl-3-fluorobenzamide] stands more than 200 °C; under `O=C1c2ccc(-c3ccccc3)cc2CCN1[C@@H]1CCN(C2CCC2)C1` (as salt: hydrochloride) [Example 50, 2-[(3R)-1-cyclobutylpyrrolidin-3-yl]-6-phenyl-3,4-dihydroisoquinolin-1(2H)-one], more than 255 °C; under `CNC(=O)c1ccc(Oc2ccc3c(c2)CCN(C2CCN(C4CCC4)CC2)C3=O)cc1` (as salt: hydrochloride) [Example 4, 4-{[2-(1-Cyclobutylpiperidin-4-yl)-1-oxo-1,2,3,4-tetrahydroisoquinolin-6-yl]oxy}-N-methylbenzamide], more than 310 °C. `CCNC(=O)c1ccc(-c2ccc3c(c2)CCN([C@@H]2CCN(C4CCCC4)C2)C3=O)cc1` (as salt: hydrochloride) [Example 42, 4-{2-[(3R)-1-cyclopentylpyrrolidin-3-yl]-1-oxo-1,2,3,4-tetrahydroisoquinolin-6-yl}-N-ethylbenzamide]: the melting point is more than 200 °C. Under `O=C(c1ccc(-c2ccc3c(c2)CCN([C@@H]2CCCN(C4CCCC4)C2)C3=O)cc1)N1CCCC1` (as salt: hydrochloride) [Example 71, 2-[(3R)-1-cyclopentylpiperidin-3-yl]-6-[4-(pyrrolidin-1-ylcarbonyl)phenyl]-3,4-dihydroisoquinolin-1(2H)-one] stands more than 250 °C; under `CNC(=O)c1ccc(-c2ccc3c(c2)CCN([C@H]2CCN(C4CCC4)C2)C3=O)cc1.Cl` [Example 90, (R)-4-(2-(1-cyclobutylpyrrolidin-3-yl)-1-oxo-1,2,3,4-tetrahydro-isoquinolin-6-yl)-N-methylbenzamide hydrochloride], 265 to 266 °C. `O=C(c1ccc(-c2ccc3c(c2)CCN([C@@H]2CCN(CC4CC4)C2)C3=O)cc1)N1CCCC1` (as salt: hydrochloride) [Example 58, 2-[(3R)-1-(cyclopropylmethyl)pyrrolidin-3-yl]-6-[4-(pyrrolidin-1-ylcarbonyl)phenyl]-3,4-dihydroisoquinolin-1(2H)-one] showed a melting point of 287 to 288 °C.

In turn, `CCN1CCC(N2Cc3cc(-c4ccc(C#N)cc4)ccc3C2=O)CC1` (as salt: hydrochloride) [Example 24, 4-[2-(1-Ethylpiperidin-4-yl)-1-oxo-2,3-dihydro-1H-isoindol-5-yl]benzonitrile] had a melting point of more than 300 °C. With `N#Cc1ccc(-c2ccc3c(c2)CN(C2CCN(CC4CCCC4)CC2)C3=O)cc1` (as salt: hydrochloride) [Example 27, 4-{2-[1-(Cyclopentylmethyl)piperidin-4-yl]-1-oxo-2,3-dihydro-1H-isoindol-5-yl}benzonitrile], the melting point is more than 300 °C.

For `CCNC(=O)c1ccc(-c2ccc3c(c2)CCN([C@@H]2CCN(C4CCC4)C2)C3=O)c(F)c1` (as salt: hydrochloride) [Example 77, 4-{2-[(3R)-1-cyclobutylpyrrolidin-3-yl]-1-oxo-1,2,3,4-tetrahydroisoquinolin-6-yl}-N-ethyl-3-fluorobenzamide], the melting point was more than 205 °C. `O=C(c1ccc(-c2ccc3c(c2)CCN([C@@H]2CCN(Cc4ccco4)C2)C3=O)cc1)N1CCCC1` (as salt: hydrochloride) [Example 61, 2-[(3R)-1-(furan-2-ylmethyl)pyrrolidin-3-yl]-6-[4-(pyrrolidin-1-ylcarbonyl)phenyl]-3,4-dihydroisoquinolin-1(2H)-one] came in with a melting point of 254 to 256 °C. Under `CNC(=O)c1ccc(COc2ccc3c(c2)CCN(C2CCN(C4CCC4)CC2)C3=O)cc1` (as salt: hydrochloride) [Example 16, 4-({[2-(1-Cyclobutylpiperidin-4-yl)-1-oxo-1,2,3,4-tetrahydroisoquinolin-6-yl]oxy}methyl)-N-methylbenzamide] stands 302 to 303 °C; under `CNC(=O)c1ccc(-c2ccc3c(c2)CCN([C@@H]2CCN(C4CCC4)C2)C3=O)c(F)c1` (as salt: hydrochloride) [Example 75, 4-{2-[(3R)-1-cyclobutylpyrrolidin-3-yl]-1-oxo-1,2,3,4-tetrahydroisoquinolin-6-yl}-3-fluoro-N-methylbenzamide], 220 to 221 °C; under `O=C(c1ccc(-c2ccc3c(c2)CCN([C@@H]2CCN(C4CCCCC4)C2)C3=O)cc1)N1CCCC1` (as salt: hydrochloride) [Example 57, 2-[(3R)-1-cyclohexylpyrrolidin-3-yl]-6-[4-(pyrrolidin-1-ylcarbonyl)phenyl]-3,4-dihydroisoquinolin-1(2H)-one], 279 to 281 °C.

With `CCNC(=O)c1ccc(Oc2ccc3c(c2)CCN([C@@H]2CCN(C4CCC4)C2)C3=O)cc1` (as salt: hydrochloride) [Example 34, 4-({2-[(3R)-1-cyclobutylpyrrolidin-3-yl]-1-oxo-1,2,3,4-tetrahydroisoquinolin-6-yl}oxy)-N-ethylbenzamide], the melting point was in the range of 153 to 154 °C. Molecule `O=C(NC1CCCC1)c1ccc(Oc2ccc3c(c2)CCN(C2CCN(C4CCC4)CC2)C3=O)cc1` (as salt: hydrochloride) [Example 9, 4-{[2-(1-Cyclobutylpiperidin-4-yl)-1-oxo-1,2,3,4-tetrahydroisoquinolin-6-yl]oxy}-N-cyclopentylbenzamide] yielded a melting point of more than 300 °C. For `CCNC(=O)c1ccc(-c2ccc3c(c2)CCN([C@@H]2CCN(C(C)C)C2)C3=O)cc1` (as salt: hydrochloride) [Example 83, N-ethyl-4-{2-[(3R)-1-isopropylpyrrolidin-3-yl]-1-oxo-1,2,3,4-tetrahydroisoquinolin-6-yl}benzamide], the melting point was more than 270 °C. The molecule `CCN(CC)C(=O)c1ccc(Oc2ccc3c(c2)CCN(C2CCN(C4CCC4)CC2)C3=O)cc1` (as salt: hydrochloride) [Example 11, 4-{[2-(1-Cyclobutylpiperidin-4-yl)-1-oxo-1,2,3,4-tetrahydroisoquinolin-6-yl]oxy}-N,N-diethylbenzamide] came in with a melting point of 249 to 251 °C. `O=C(c1ccc(-c2ccc3c(c2)CCN(C2CCN(C4CCCC4)CC2)C3=O)cc1)N1CCCC1` (as salt: hydrochloride) [Example 66, 2-(1-cyclopentylpiperidin-4-yl)-6-[4-(pyrrolidin-1-ylcarbonyl)phenyl]-3,4-dihydroisoquinolin-1(2H)-one] showed a melting point of more than 300 °C. In turn, `CCNC(=O)c1ccc(COc2ccc3c(c2)CCN(C2CCN(C4CCC4)CC2)C3=O)cc1` (as salt: hydrochloride) [Example 17, 4-({[2-(1-Cyclobutylpiperidin-4-yl)-1-oxo-1,2,3,4-tetrahydroisoquinolin-6-yl]oxy}methyl)-N-ethylbenzamide] displayed a melting point of 307 to 309 °C. Under `CNC(=O)c1ccc(-c2ccc3c(c2)CCN([C@@H]2CCN(C(C)C)C2)C3=O)cc1` (as salt: hydrochloride) [Example 82] stands more than 275 °C; under `N#Cc1ccc(-c2ccc3c(c2)CN(C2CCN(C4CCC4)CC2)C3=O)cc1` (as salt: hydrochloride) [Example 28, 4-[2-(1-Cyclobutylpiperidin-4-yl)-1-oxo-2,3-dihydro-1H-isoindol-5-yl]benzonitrile], 320 °C (dec.).
